The record followed here is a melting point compilation (Tetko et al.; mined from patent text by program, amines drawn as free bases though some values may be those of a salt).

In general, melting point refers to the temperature, or range, at which the solid turns liquid. Turning to `CC(Cc1c[nH]c2ccccc12)(NS(=O)(=O)CC12CCC(CC1=O)C2(C)C)C(=O)NC(CO)Cc1ccccc1` (configuration not stated), the melting point is 81 to 85 °C.
The same measure for `COc1cc(-c2ccc(-c3ccc(N)c(OC)c3)o2)ccc1N`: 188 to 190 °C; for `Oc1nn(-c2ccccc2)cc1CCc1cscn1`: 152 to 153 °C.
For `Cc1cc(-c2ccc(OC3SCC(O)C(O)C3O)c(F)n2)ccn1` (configuration not stated) the value was 159 to 162 °C; for `COc1cc(Nc2nccc(-c3ccc(N4CCCC(CO)C4)nc3)n2)cc(OC)c1OC` (configuration not stated), 183 to 184 °C; for `C=CCONC(=O)c1nc(-c2ccc(Cl)c(OC)c2F)nc(N)c1OC`, 148 to 150 °C.
Take `O=C1c2ccccc2C(=O)N1C(CCCBr)c1ccccc1` (configuration not stated): the melting point lay within 88 to 91 °C.
On to `Cc1cc(Oc2ccc(Cl)c3c2CCCC3)c(Cl)cc1[N+](=O)[O-]`, for which the melting point lay within 139 to 140 °C.
The same measure for `Nc1cccc(NC(=O)NCCCOc2cccc(CN3CCCCC3)c2)c1`: 116 to 118 °C; for `CC1CCc2c(-c3ccc([N+](=O)[O-])cc3)ccc3c(=O)c(C(=O)O)cn1c23` (configuration not stated): over 300 °C; for `Cc1cc(Oc2ccc(N)cc2)c2cc3c(cc2n1)OCO3`: 251 to 253 °C.
For the compound `C=C(C)CC(O)(C(Nc1cccc2nc(C)ncc12)c1ccc(Cl)cc1OC)C(F)(F)F` (configuration not stated), the melting point was 193 °C.
For `C=COC(=O)C1=Cc2cc(Cl)cc(C=C)c2OC1C(F)(F)F` (configuration not stated) the value was 75.9 to 77.2 °C.
The compound `CC(=O)NC(C)(C(=O)NS(=O)(=O)c1ccc(C)cc1)C(C)C` (configuration not stated) displayed a melting point of 198 to 199 °C.
Compound `CC(C)(C)C(=O)COc1nn(CC(=O)C(C)(C)C)c(-c2ccc(S(C)(=O)=O)cc2)c1-c1ccc(F)cc1` gave a melting point of 180 to 182 °C.
`CC=C1CC2C3CCc4cc(OC)ccc4C3CCC2(C)C1=O` (configuration not stated) displayed a melting point of 139 to 140 °C.
For the compound `CC(C)(C)c1nc2cc(N3CCOCC3)c([N+](=O)[O-])cc2s1`, the melting point lay within 119 to 121 °C.
The same measure for `O=S(=O)(Cl)c1ccc2oc(-c3ccncc3)cc2c1`: 210 °C; for `CC1CCc2c(N3CCC(Cc4ccccc4)CC3)c(F)cc3c(=O)c(C(=O)O)cn1c23` (configuration not stated): 230 to 232 °C.
For the compound `Cn1ncnc1COc1nc2c(cnn2-c2ccccc2)c2ccccc12`, the melting point lay within 149 to 151 °C.
Turning to `N#CC(C(=O)NCc1ccccc1Cl)C(=O)c1nn(-c2ccccc2)c2c1CSc1ccccc1-2` (configuration not stated), the melting point was in the range of 228 to 230 °C.
In turn, `CCOC(=O)C1=C(C)NC(COCCN2C(=O)c3ccccc3C2=O)=C(C(=O)OCC)C1c1ccccc1Cl` (configuration not stated) registered a melting point of 142 to 144 °C.
Take `CS(=O)(=O)Nn1c(=O)[nH]c2cc([N+](=O)[O-])c(NC3CCCC3)cc2c1=O`: the melting point lay within 146 to 155 °C.
`CCCCCCCCCCCCCCCCCC(=O)Oc1cc(C)c(O)c(C(C)(C)C)c1` came in with a melting point of 64 to 65.5 °C.
In turn, `CC(C)(C)OC(=O)N1CCC(c2nc3cc(-c4ccc(S(C)(=O)=O)c(F)c4)ccc3o2)CC1` yielded a melting point of 174 to 178 °C.
In the case of `O=C(O)c1ccccc1Oc1ccc(C(F)(F)F)cc1NS(=O)(=O)c1cc(C(F)(F)F)cc(C(F)(F)F)c1`, the melting point lay within 133 to 134 °C.
On to `CN(C)CCN(C(N)=O)c1cnccn1`, for which the melting point fell in the range of 105 to 108 °C.
The same measure for `O=Cc1cn(Cc2ccc3cc(OCc4ccccc4)ccc3c2)cc1-c1ccccc1`: 140 to 141 °C.
For `C[C@@H]1CNCc2cc3ccc(C(F)(F)F)cc3n21` the value was 123 to 125 °C; for `O=C(Cc1ccsc1)N[C@H]1C[C@H](C(=O)O)Nc2cc(Cl)cc(Cl)c21` (relative stereo), 198 to 200 °C; for `Fc1cc(OCc2ccccc2)cnc1-c1ccccc1`, 105 to 106 °C.
On to `CCOC(=O)c1ccc2nc(C)n(Cc3ccccc3Cl)c2c1`, for which the melting point lay within 126 to 127 °C.
Turning to `COc1ccc(C(=O)Nc2ccncc2)c2c1oc1ccc(NC(C)=O)cc12`, the melting point was in the range of 267 to 268 °C.
The compound `N#Cc1ccc(CN2CC=C(/C=C/c3ccc(F)cc3)CC2)cc1` returned a melting point of 150 to 152 °C.
As for `O=C(O)c1c[nH]c2oc3ccccc3c(=O)c2c1=O`, the melting point lay within 335 to 340 °C.
The same measure for `COCCOC(=O)c1cnn2c(-c3cccc(C(F)(F)F)c3)ccnc12`: 111 to 112 °C; for `CCNc1ncccc1-c1sccc1-c1cccnc1F`: 86 to 89 °C.
In turn, `CC(C)(N)c1ccc(-c2nc(Nc3cc(F)c(F)c(F)c3)ncc2C#N)cc1` yielded a melting point of 220 °C.
The same measure for `Cc1cc(-c2cc(=O)n(C)[nH]2)c(F)cc1Cl`: 155 to 156 °C; for `CCC(CC)n1cc(Cl)nc(N2CCc3cc(OC)cc(Br)c32)c1=O`: 130 to 132 °C.
Compound `O=c1c(-c2ccc(O)cc2)coc2ncccc12` yielded a melting point of 262 to 264 °C.
In turn, `O=C(Nc1cccc2[nH]ccc12)c1ccc(Cl)cc1OCC1CO1` (configuration not stated) came in with a melting point of 194 °C.
`O=C(O)C1CCc2ccccc2N1C(=O)CCS` (configuration not stated): the melting point fell in the range of 130 to 132 °C.
Take `O=C(CNS(=O)(=O)c1ccc2[nH]c(=O)c(=O)[nH]c2c1)OCc1ccccc1`: the melting point lay within 270 to 280 °C.
`Cc1[nH]c(/C=C2\C(=O)Nc3ccc(F)cc32)c(C)c1C(=O)NCCCCCC(=O)NO` registered a melting point of 210 °C.
`Nc1nc(Cl)c2c(n1)CCCS2` returned a melting point of 196 to 198 °C.
In turn, `NC(=O)C[C@H](NC(=O)c1ccccn1)C(=O)O` had a melting point of 171 to 172 °C.
With `CCCc1n[nH]c(CCC)n1`, the melting point is 69 to 70 °C.
As to `COC(=O)Cc1ccc(CN2CCN(C(c3ccccc3)c3ccccn3)CC2)cc1` (configuration not stated), the melting point lay within 122 to 123 °C.
For the compound `CCCCCCCCC#CCC#CCC#CCO`, the melting point was found to be 48 °C.
As to `O=C1c2ccc(OCCOCCOCCO)cc2C(=O)c2ccc(OCCOCCOCCO)cc21`, the melting point came out at 110 °C.
In the case of `CCOC(=O)CCCCCCC(=O)c1ccc2cc(OC)ccc2c1`, the melting point lay within 77 to 78 °C.
On to `O=C(Nc1ccc(F)c(C(F)(F)F)c1)c1cccc2cc(OS(=O)(=O)C(F)(F)F)ccc12`, for which the melting point was in the range of 171 to 172 °C.
Compound `COc1ccc(Nc2nc(NC3CCCCCC3)nc(Oc3ccc(C#CC(C)(C)O)cc3)n2)cc1Cl` showed a melting point of 132 to 134 °C.
On to `CN(C)c1cc[nH]c(=O)c1[N+](=O)[O-]`, for which the melting point was 208 to 209 °C.
Take `CCOC(=O)C(Cc1ccccc1)N(CC)C(=O)OC(C)(C)C` (configuration not stated): the melting point fell in the range of 58 to 61.5 °C.
In the case of `Cc1ccc(Sc2ccc3c(c2)CC[C@H]2NC(=O)CC[C@]32C)cc1`, the melting point was 209 to 212 °C.
The same measure for `O=C(Nc1ccc(C(F)(F)F)cc1)N1CC(c2ccc(Cl)cc2)C(c2ccc(Cl)cc2)N1` (configuration not stated): 242 to 243 °C; for `COC(=O)C(C(C)C)N(C)S(=O)(=O)c1ccc(-c2ccc(NC(=O)c3cc4ccccc4o3)cc2)cc1` (configuration not stated): 67 to 69 °C; for `CCOC(=O)N1C=CC(c2c(-c3ccccc3)nn3ccccc23)C(Cl)=N1` (configuration not stated): 130 to 132 °C.
For `O=C1C2CCCC1CN(Cc1ccccc1)C2` the value was 48 to 50.5 °C; for `CC(=O)N1C(=O)C(C(=O)c2ccco2)c2ccccc21` (configuration not stated), 138 °C.
The compound `CC(C)(C1OCCO1)C(O)(Cn1cncn1)c1ccc(F)cc1` (configuration not stated) came in with a melting point of 90 °C.
For the compound `O=[N+]([O-])C1=C2N(Cc3ccc(Cl)nc3)CCN2C2CCCC1O2` (configuration not stated), the melting point is 175 °C.
The same measure for `CCn1cc(C(=O)O)c(=O)c2cc(F)c(N3CCN4CCC3C4)nc21` (configuration not stated): 228 to 229 °C; for `O=C(O)C1CCc2c(c3cc(F)ccc3n2C(=O)c2ccccc2)C1` (configuration not stated): 218 to 220 °C; for `Cc1cc(-c2nc3cccnn3c2-c2ccnc(NC(=O)c3ccccc3C)c2)ccc1F`: 265 to 266 °C.
Compound `Fc1cccc2c1C1=NCCN1C(Cl)=N2` showed a melting point of 281 to 285 °C.
`O=C1C(=Cc2ccccc2)CCc2cc(OCCc3c[nH]cn3)ccc21` showed a melting point of 53 to 56 °C.
For `COc1c(C(C)(C)C)cc(SC)cc1C(C)(C)C` the value was 50 to 52 °C; for `CC(=O)Oc1cc2c(s1)C(N1CCCC1=O)CC(C)(C)O2` (configuration not stated), 92 to 93 °C; for `CCCCCc1csc(-c2ccc3c(c2)C=C(C(=O)Nc2ccc(CN(C)C4CCOCC4)cc2)CCS3(=O)=O)c1`, 204 to 206 °C.
The compound `COC(=O)c1cnc(N)nc1OC` displayed a melting point of 221 °C.
For `COc1cc2cc(CO)c(CO)c(-c3ccnc(NC(C)CCCO)c3)c2cc1OC` (configuration not stated) the value was 57 to 61 °C; for `CC(C)N(C(=O)C(Cc1ccc(C#N)cc1)NC(=O)OC(C)(C)C)C(C)C` (configuration not stated), 172 °C; for `CS(=O)(=O)c1ccc(-c2cn[nH]c(=O)c2-c2ccc(F)cc2)cc1`, 255 to 256 °C.
`O=C(O)CC1=C(n2nc(-c3c(-c4ccccc4)nn4ccccc34)ccc2=O)CCCCC1` showed a melting point of 171 to 172 °C.
In turn, `Cc1ccc(-c2n[nH]c(N)c2C#N)cc1` returned a melting point of 173 to 178 °C.
The compound `CCOC(=O)c1c(NCCCC(=O)c2ccccc2)c2c(Cl)cc(Cl)cc2n1C(=O)OC(C)(C)C` returned a melting point of 110 to 111 °C.
For `O=Cc1cccc(OCCCN2C(=O)c3ccccc3C2=O)c1` the value was 102 to 104 °C; for `COC1CCN(CC=CC(=O)Nc2cc3c(Nc4ccc(F)c(Cl)c4)ncnc3cc2OCC2CC2)CC1`, 129 to 130 °C; for `CCOC(=NC(=O)Nc1ccc(OC(F)(F)F)cc1)N1Cc2ccccc2-c2ccccc2C1`, 129 to 130 °C.
For `COc1ccc(-c2cc(=O)[nH]c(=O)[nH]2)cc1OC` the value was over 300 °C; for `CC(C)C[C@H](NC(=O)[C@@H]1CCC(=O)N1C(=O)OCc1ccccc1)C(=O)OC(C)(C)C`, 130 to 131 °C.
For `CCOC(=O)C1=C(C)NC2=C(C(=O)N(CCN(CC)CC)C2)C1c1ccccc1[N+](=O)[O-]` (configuration not stated) the value was 187 to 188 °C; for `CCCCCCCCCC(C)(C)c1cc(C(=O)O)ccc1OC`, 112 °C.
Compound `Nc1c(Cl)ncnc1NCc1ccc(CO)o1` gave a melting point of 137 °C.
